What was measured:
large (Lg) crabgrass [1] = assay: Test A preemergence; type: in vivo, Digitaria sanguinalis; conditions: Digitaria sanguinalis, pre-emergence, 240 h
Summary of the method: (§1)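 Compounds in non-phytotoxic solvent with surfactant applied as soil spray preemergence, or postemergence to plants 2-10 cm at one- to two-leaf stage, in loam/sand. After approximately 10 days in greenhouse, injury rated visually versus untreated controls, 0 (no effect) to 100 (complete control).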

giant foxtail [2] = assay: Test A preemergence; type: in vivo, Setaria faberii; conditions: Setaria faberi, pre-emergence, 240 h
Summary of the method: as §1

morningglory [3] = assay: Test A preemergence; type: in vivo, Ipomoea spp.
Summary of the method: as §1

velvetleaf = assay: Test A preemergence; type: in vivo, Abutilon theophrasti
Summary of the method: as §1

morningglory [4] = assay: Test A postemergence; type: in vivo, Ipomoea spp.; conditions: Ipomoea, post-emergence, 240 h
Summary of the method: as §1

blackgrass = assay: Test C postemergence; type: in vivo, Alopecurus myosuroides; conditions: Alopecurus myosuroides, post-emergence
Summary of the method: (§2)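 Whole-plant greenhouse test with surfactant-containing solvent formulation, applied preemergence to sown loam–sand pots or postemergence to 2–18 cm plants. Scored by eye 13 to 15 days on, 0–100 scale.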

Italian ryegrass = assay: Test C postemergence; type: in vivo, Lolium multiflorum; conditions: Lolium multiflorum, post-emergence
Summary of the method: as §2

corn = assay: Test C postemergence; type: in vivo, Zea mays; conditions: Zea mays, post-emergence
Summary of the method: as §2

large (Lg) crabgrass [5] = assay: Test C postemergence; type: in vivo, Digitaria sanguinalis; conditions: Digitaria sanguinalis, post-emergence
Summary of the method: as §2

giant foxtail [6] = assay: Test C postemergence; type: in vivo, Setaria faberii; conditions: Setaria faberi, post-emergence
Summary of the method: as §2

johnsongrass = assay: Test C postemergence; type: in vivo, Sorghum halepense; conditions: Sorghum halepense, post-emergence
Summary of the method: as §2

yellow nutsedge = assay: Test C postemergence; type: in vivo, Cyperus esculentus; conditions: Cyperus, post-emergence
Summary of the method: as §2

waterhemp = assay: Test C postemergence; type: in vivo, Amaranthus rudis; conditions: Amaranthus tuberculatus, post-emergence
Summary of the method: as §2

wild oat = assay: Test C postemergence; type: in vivo, Avena fatua; conditions: Avena fatua, post-emergence
Summary of the method: as §2

chickweed = assay: Test C postemergence; type: in vivo, Stellaria media; conditions: Stellaria media, post-emergence
Summary of the method: as §2

[7] = 125 g ai/ha, 0 to 100 scale where 0 is no effect and 100 is complete control

For `N#Cc1cccc(Oc2ncc(Cl)cn2)c1-n1cc(Br)cn1` [Compound 52, 2-(4-bromo-1H-pyrazol-1-yl)-3-[(5-chloro-2-pyrimidinyl)oxy]benzonitrile], the pest or weed control at 125 g/ha (large (Lg) crabgrass [1]; 125 g ai/ha, 0 to 100 scale where 0 is no effect and 100 is complete control, read-out: Plant response rating, Crabgrass, Large) was 100%, the pest or weed control at 500 g/ha (large (Lg) crabgrass [1]; 500 g ai/ha, 0 to 100 scale, 0 no effect, 100 complete control, approx. 10 days, read-out: Crabgrass, Large plant response rating) was 100% and the pest or weed control at 125 g/ha (giant foxtail [2]; 125 g ai/ha, 0 to 100 scale where 0 is no effect and 100 is complete control, read-out: Plant response rating, Foxtail, Giant) was 100%. For the same compound, the pest or weed control at 500 g/ha (giant foxtail [2]; 500 g ai/ha, 0 to 100 scale, 0 no effect, 100 complete control, approx. 10 days, read-out: Foxtail, Giant plant response rating) was 100%, the “Plant response rating, Morningglory” value (morningglory [3]; [7]) was 90 and the pest or weed control at 500 g/ha (morningglory [3]; Ipomoea, pre-emergence, 240 h, 500 g ai/ha, 0 to 100 scale, 0 no effect, 100 complete control, approx. 10 days, read-out: Morningglory plant response rating) was 100%. The “Plant response rating, Velvetleaf” value (velvetleaf; [7]) was 100, the pest or weed control at 500 g/ha (velvetleaf; Abutilon theophrasti, pre-emergence, 240 h, 500 g ai/ha, 0 to 100 scale, 0 no effect, 100 complete control, approx. 10 days, read-out: Velvetleaf plant response rating) was 100% and the pest or weed control at 125 g/ha (morningglory [4]; 125 g ai/ha, 0 to 100 scale where 0 is no effect and 100 is complete control, read-out: Plant response rating, Morningglory) was 100%. It also gave a pest or weed control at 500 g/ha (morningglory [4]; 500 g ai/ha, 0 to 100 scale, 0 no effect, 100 complete control, read-out: Plant response rating Morningglory) of 100%, a pest or weed control at 125 g/ha (blackgrass; 125 g ai/ha, postemergence, read-out: Plant response rating (0 to 100), Blackgrass) of 10% and a pest or weed control at 250 g/ha (blackgrass; 250 g ai/ha, postemergence, read-out: Plant response rating (0 to 100), Blackgrass) of 25%. For the same compound, the pest or weed control at 31 g/ha (blackgrass; Postemergence, 31 g ai/ha, scale 0 to 100 (0 no effect, 100 complete control), 13 to 15 days, read-out: Plant response rating, Blackgrass) was 5%, the pest or weed control at 62 g/ha (blackgrass; Postemergence, 62 g ai/ha, scale 0 to 100 (0 no effect, 100 complete control), read-out: Plant response rating, Blackgrass) was 5% and the pest or weed control at 125 g/ha (Italian ryegrass; 125 g ai/ha, postemergence, read-out: Plant response rating (0 to 100), Ryegrass, Italian) was 10%. It also gave a pest or weed control at 250 g/ha (Italian ryegrass; 250 g ai/ha, postemergence, read-out: Plant response rating (0 to 100), Ryegrass, Italian) of 10%, a pest or weed control at 31 g/ha (Italian ryegrass; Postemergence, 31 g ai/ha, scale 0 to 100 (0 no effect, 100 complete control), 13 to 15 days, read-out: Plant response rating, Ryegrass, Italian) of 0% and a pest or weed control at 62 g/ha (Italian ryegrass; Postemergence, 62 g ai/ha, scale 0 to 100 (0 no effect, 100 complete control), read-out: Plant response rating, Ryegrass, Italian) of 5%. The plant injury at 125 g/ha (corn; 125 g ai/ha, postemergence, read-out: Plant response rating (0 to 100), Corn) was 10%, the plant injury at 250 g/ha (corn; 250 g ai/ha, postemergence, read-out: Plant response rating (0 to 100), Corn) was 10% and the Corn plant response rating (crop injury, 0 = no effect, 100 = complete kill) at 31 g/ha (corn; Postemergence, 31 g ai/ha, scale 0 to 100 (0 no effect, 100 complete control), 13 to 15 days) was 5%. For the same compound, the Corn plant response rating (crop injury, 0 = no effect, 100 = complete kill) at 62 g/ha (corn; Postemergence, 62 g ai/ha, scale 0 to 100 (0 no effect, 100 complete control)) was 10%, the pest or weed control at 125 g/ha (large (Lg) crabgrass [5]; 125 g ai/ha, postemergence, read-out: Plant response rating (0 to 100), Crabgrass, Large) was 20% and the pest or weed control at 250 g/ha (large (Lg) crabgrass [5]; 250 g ai/ha, postemergence, read-out: Plant response rating (0 to 100), Crabgrass, Large) was 40%. The pest or weed control at 31 g/ha (large (Lg) crabgrass [5]; Postemergence, 31 g ai/ha, scale 0 to 100 (0 no effect, 100 complete control), 13 to 15 days, read-out: Plant response rating, Crabgrass, Large) was 5%, the pest or weed control at 62 g/ha (large (Lg) crabgrass [5]; Postemergence, 62 g ai/ha, scale 0 to 100 (0 no effect, 100 complete control), read-out: Plant response rating, Crabgrass, Large) was 15% and the pest or weed control at 125 g/ha (giant foxtail [6]; 125 g ai/ha, postemergence, read-out: Plant response rating (0 to 100), Foxtail, Giant) was 70%. For the same compound, the pest or weed control at 250 g/ha (giant foxtail [6]; 250 g ai/ha, postemergence, read-out: Plant response rating (0 to 100), Foxtail, Giant) was 70%, the pest or weed control at 31 g/ha (giant foxtail [6]; Postemergence, 31 g ai/ha, scale 0 to 100 (0 no effect, 100 complete control), 13 to 15 days, read-out: Plant response rating, Foxtail, Giant) was 45% and the pest or weed control at 62 g/ha (giant foxtail [6]; Postemergence, 62 g ai/ha, scale 0 to 100 (0 no effect, 100 complete control), read-out: Plant response rating, Foxtail, Giant) was 50%. The pest or weed control at 125 g/ha (johnsongrass; 125 g ai/ha, postemergence, read-out: Plant response rating (0 to 100), Johnsongrass) was 5%, the pest or weed control at 250 g/ha (johnsongrass; 250 g ai/ha, postemergence, read-out: Plant response rating (0 to 100), Johnsongrass) was 10% and the pest or weed control at 31 g/ha (johnsongrass; Postemergence, 31 g ai/ha, scale 0 to 100 (0 no effect, 100 complete control), 13 to 15 days, read-out: Plant response rating, Johnsongrass) was 5%. The pest or weed control at 62 g/ha (johnsongrass; Postemergence, 62 g ai/ha, scale 0 to 100 (0 no effect, 100 complete control), read-out: Plant response rating, Johnsongrass) was 5%, the pest or weed control at 125 g/ha (yellow nutsedge; 125 g ai/ha, postemergence, read-out: Plant response rating (0 to 100), Nutsedge, Yellow) was 5% and the pest or weed control at 250 g/ha (yellow nutsedge; 250 g ai/ha, postemergence, read-out: Plant response rating (0 to 100), Nutsedge, Yellow) was 30%. For the same compound, the pest or weed control at 31 g/ha (yellow nutsedge; Postemergence, 31 g ai/ha, scale 0 to 100 (0 no effect, 100 complete control), 13 to 15 days, read-out: Plant response rating, Nutsedge, Yellow) was 0%, the pest or weed control at 62 g/ha (yellow nutsedge; Postemergence, 62 g ai/ha, scale 0 to 100 (0 no effect, 100 complete control), read-out: Plant response rating, Nutsedge, Yellow) was 5% and the pest or weed control at 125 g/ha (waterhemp; 125 g ai/ha, postemergence, read-out: Plant response rating (0 to 100), Waterhemp) was 75%. For the same compound, the pest or weed control at 250 g/ha (waterhemp; 250 g ai/ha, postemergence, read-out: Plant response rating (0 to 100), Waterhemp) was 95%, the pest or weed control at 31 g/ha (waterhemp; Postemergence, 31 g ai/ha, scale 0 to 100 (0 no effect, 100 complete control), 13 to 15 days, read-out: Plant response rating, Waterhemp) was 70% and the pest or weed control at 62 g/ha (waterhemp; Postemergence, 62 g ai/ha, scale 0 to 100 (0 no effect, 100 complete control), read-out: Plant response rating, Waterhemp) was 70%. For the same compound, the pest or weed control at 125 g/ha (wild oat; 125 g ai/ha, postemergence, read-out: Plant response rating (0 to 100), Oat, Wild) was 10%, the pest or weed control at 250 g/ha (wild oat; 250 g ai/ha, postemergence, read-out: Plant response rating (0 to 100), Oat, Wild) was 15% and the pest or weed control at 31 g/ha (wild oat; Postemergence, 31 g ai/ha, scale 0 to 100 (0 no effect, 100 complete control), 13 to 15 days, read-out: Plant response rating, Oat, Wild) was 0%. It also gave a pest or weed control at 62 g/ha (wild oat; Postemergence, 62 g ai/ha, scale 0 to 100 (0 no effect, 100 complete control), read-out: Plant response rating, Oat, Wild) of 5%, a pest or weed control at 125 g/ha (chickweed; 125 g ai/ha, postemergence, read-out: Plant response rating (0 to 100), Chickweed) of 90% and a pest or weed control at 250 g/ha (chickweed; 250 g ai/ha, postemergence, read-out: Plant response rating (0 to 100), Chickweed) of 95%. It also gave a pest or weed control at 31 g/ha (chickweed; Postemergence, 31 g ai/ha, scale 0 to 100 (0 no effect, 100 complete control), 13 to 15 days, read-out: Plant response rating, Chickweed) of 40% and a pest or weed control at 62 g/ha (chickweed; Postemergence, 62 g ai/ha, scale 0 to 100 (0 no effect, 100 complete control), read-out: Plant response rating, Chickweed) of 60%.
